Assay results: patent publication US9770026B2, “Substituted pyrimidine compound and uses thereof” (Shenyang Sinochem Agrochemicals R&D Co., Ltd., priority 2012, dated 2017)

Columns and labels:
[1] = system: cucumber gray mold; experiment: fungicidal activity in vitro (inhibition rate) against cucumber gray mold; format: cell-based; conditions: 25 ppm, in vitro; read-out: inhibition rate against cucumber gray mold
[2] = system: Green peach aphids (Myzus Persicae Sulzer); experiment: bioactivity test against green peach aphid, airbrush foliar spray; format: in vivo; conditions: for pest or weed control at 5 µg/mL: 5 mg/L; for pest or weed control at 10 µg/mL: 10 mg/L; for pest or weed control at 100 µg/mL: 100 mg/L; for pest or weed control at 600 µg/mL: 600 mg/L
How it was run: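 Aphids (15-30 per cabbage leaf disc) on moist filter paper were airbrush-sprayed at 10 psi, 0.5 mL, with compound from acetone:methanol (1:1) diluted in water with 0.1% tween 80. Held at 25±1 C, 60±5% RH; survivors counted after 48 hrs to give death rates.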

[3] = system: armyworm; experiment: bioactivity test against armyworm, airbrush spray; format: in vivo; conditions: 72 h, 600 ppm, mortality after 72 h
[4] = system: corn rust; experiment: protectant activity in vivo against corn rust; conditions: Zea mays, 168 h; for pest or weed control at 25 ppm: read-out: protectant activity against corn rust in vivo, 25 ppm; for pest or weed control at 100 ppm: read-out: protectant activity against corn rust in vivo, 100 ppm; for pest or weed control at 400 ppm: read-out: protectant activity against corn rust in vivo, 400 ppm
[5] = system: cucumber downy mildew; experiment: protectant activity in vivo against cucumber downy mildew; conditions: Cucumis sativus, 168 h; for pest or weed control at 100 ppm: read-out: protectant activity against cucumber downy mildew in vivo, 100 ppm; for pest or weed control at 400 ppm: read-out: protectant activity against cucumber downy mildew in vivo, 400 ppm
[6] = system: Diamond back moth; experiment: insecticidal activity against diamond back moth, airbrush spray; format: in vivo; conditions: 72 h
How it was run: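 Airbrush leaf-disc spray test: both faces of 2 cm cabbage discs received 0.5 ml of test solution at 0.7 kg/cm^2. Solutions were made in acetone:methanol (1:1) and brought to concentration with 0.1% Tween 80 in water. Ten second-instar larvae per disc, triplicates, were held at 25° C and 60˜70% R.H., with mortality recorded at 72 hrs.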

[7] = system: wheat powdery mildew; experiment: protectant activity in vivo against wheat powdery mildew; conditions: Triticum aestivum, 168 h; for pest or weed control at 100 ppm: read-out: protectant activity against wheat powdery mildew in vivo, 100 ppm; for pest or weed control at 400 ppm: read-out: protectant activity against wheat powdery mildew in vivo, 400 ppm
[8] = system: rice blast; experiment: microbe, parasite or virus in culture; format: cell-based; conditions: Pyricularia oryzae; for inhibition at 25 ppm: read-out: inhibition rate against rice blast, 25 ppm, in vitro
[9] = system: carmine spider mite; experiment: bioactivity test against carmine spider mite, airbrush spray; format: in vivo; conditions: for pest or weed control at 100 µg/mL: 100 mg/L; for pest or weed control at 600 µg/mL: 600 mg/L
How it was run: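 Broadbean seedlings infested with adult mites were sprayed with compound (acetone/methanol stock diluted in 0.1% Tween 80 water) by airbrush at 0.7 kg/cm^2, 0.5 ml. Three replicates were run. Mortality was scored after 72 hrs.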

[10] = Myzus persicae, foliar, 48 h, contrastive test, read-out: Insecticidal activity against peach aphid (%)
[11] = Myzus persicae, foliar, 48 h, death rate after 48 hrs
[12] = mortality after 72 hrs, read-out: control (test results against diamond back moth)
[13] = Tetranychus cinnabarinus, 72 h, contrastive test, read-out: Insecticidal activity against carmine spider mite (% )
[14] = Tetranychus cinnabarinus, 72 h, mortality after 72 hrs

CCc1ncnc(NCCc2ccc(Oc3ccc(C(F)(F)F)cc3)cc2)c1Cl [II-347]
65%: pest or weed control at 10 µg/mL ([6]; 10 mg/L)
100%: control (test results against green peach aphid) ([2]; 2.5 ppm, death rate after 48 hrs) | pest or weed control at 2.5 µg/mL ([2]; Myzus persicae, foliar, 48 h, 2.5 mg/L, contrastive test, read-out: Insecticidal activity against peach aphid (%)) | pest or weed control at 5 µg/mL [2, 10] | pest or weed control at 10 µg/mL [2, 10] | pest or weed control at 100 µg/mL [2, 10] | pest or weed control at 600 µg/mL [2, 10] | pest or weed control at 5 ppm ([2]; Myzus persicae, foliar, 48 h, 5 ppm, death rate after 48 hrs) | pest or weed control at 10 ppm [2, 11] | pest or weed control at 100 ppm [2, 11] | pest or weed control at 600 ppm [2, 11] | pest or weed control at 600 ppm [3] | pest or weed control at 100 ppm [4] | pest or weed control at 400 ppm [4] | pest or weed control at 400 ppm [5] | pest or weed control at 600 µg/mL ([6]; 600 mg/L) | pest or weed control at 600 ppm [6, 12] | pest or weed control at 25 ppm ([7]; read-out: protectant activity against wheat powdery mildew in vivo, 25 ppm) | pest or weed control at 100 ppm [7] | pest or weed control at 400 ppm [7] | pest or weed control at 10 µg/mL ([9]; Tetranychus cinnabarinus, 72 h, 10 mg/L, contrastive test, read-out: Insecticidal activity against carmine spider mite (% )) | pest or weed control at 100 µg/mL [9, 13] | pest or weed control at 600 µg/mL [9, 13] | pest or weed control at 10 ppm ([9]; Tetranychus cinnabarinus, 72 h, 10 ppm, mortality after 72 hrs) | pest or weed control at 100 ppm [9, 14] | pest or weed control at 600 ppm [9, 14]
75%: Insecticidal activity against carmine spider mite (% ) ([9]; 2.5 mg/L)
70%: pest or weed control at 100 µg/mL ([6]; 100 mg/L)
90%: Insecticidal activity against carmine spider mite (% ) ([9]; 5 mg/L)
80 to 99%: inhibition at 25 ppm [1] | pest or weed control at 6.25 ppm ([4]; read-out: protectant activity against corn rust in vivo, 6.25 ppm) | pest or weed control at 25 ppm [4] | pest or weed control at 100 ppm [5] | inhibition at 25 ppm [8]
81%: pest or weed control at 1.25 µg/mL ([2]; Myzus persicae, foliar, 48 h, 1.25 mg/L, contrastive test, read-out: Insecticidal activity against peach aphid (%))

Cc1ncnc(NCCc2ccc(Oc3ccc(Cl)cc3)nc2)c1Cl [III-7]
88%: pest or weed control at 5 µg/mL [2, 10]
100%: pest or weed control at 100 µg/mL [2, 10] | pest or weed control at 600 µg/mL [2, 10] | pest or weed control at 100 ppm [2, 11] | pest or weed control at 600 ppm [2, 11] | pest or weed control at 600 ppm [3] | pest or weed control at 25 µg/mL ([4]; read-out: control effect against corn rust (%), 25 mg/L, protectant activity) | pest or weed control at 100 µg/mL ([4]; read-out: control effect against corn rust (%), 100 mg/L, protectant activity) | pest or weed control at 400 µg/mL ([4]; read-out: control effect against corn rust (%), 400 mg/L, protectant activity) | pest or weed control at 25 ppm [4] | pest or weed control at 100 ppm [4] | pest or weed control at 400 ppm [4] | pest or weed control at 3.125 µg/mL ([5]; read-out: control effect against cucumber downy mildew (%), 3.125 mg/L, protectant activity) | pest or weed control at 6.25 µg/mL ([5]; read-out: control effect against cucumber downy mildew (%), 6.25 mg/L, protectant activity) | pest or weed control at 12.5 µg/mL ([5]; read-out: control effect against cucumber downy mildew (%), 12.5 mg/L, protectant activity) | pest or weed control at 25 µg/mL ([5]; read-out: control effect against cucumber downy mildew (%), 25 mg/L, protectant activity) | pest or weed control at 50 µg/mL ([5]; read-out: control effect against cucumber downy mildew (%), 50 mg/L, protectant activity) | pest or weed control at 100 µg/mL ([5]; read-out: control effect against cucumber downy mildew (%), 100 mg/L, protectant activity) | pest or weed control at 400 µg/mL ([5]; read-out: control effect against cucumber downy mildew (%), 400 mg/L, protectant activity) | pest or weed control at 6.25 ppm ([5]; read-out: protectant activity against cucumber downy mildew in vivo, 6.25 ppm) | pest or weed control at 12.5 ppm ([5]; read-out: protectant activity against cucumber downy mildew in vivo, 12.5 ppm) | pest or weed control at 25 ppm ([5]; read-out: protectant activity against cucumber downy mildew in vivo, 25 ppm) | pest or weed control at 50 ppm ([5]; read-out: protectant activity against cucumber downy mildew in vivo, 50 ppm) | pest or weed control at 100 ppm [5] | pest or weed control at 400 ppm [5] | pest or weed control at 600 ppm [6, 12] | pest or weed control at 400 ppm [7] | inhibition at 0.1 ppm ([8]; read-out: inhibition rate against rice blast, 0.1 ppm, in vitro) | inhibition at 0.3 ppm ([8]; read-out: inhibition rate against rice blast, 0.3 ppm, in vitro) | inhibition at 0.9 ppm ([8]; read-out: inhibition rate against rice blast, 0.9 ppm, in vitro) | inhibition at 2.8 ppm ([8]; read-out: inhibition rate against rice blast, 2.8 ppm, in vitro) | inhibition at 8.3 ppm ([8]; read-out: inhibition rate against rice blast, 8.3 ppm, in vitro) | inhibition at 25 ppm [8] | pest or weed control at 100 µg/mL [9, 13] | pest or weed control at 600 µg/mL [9, 13] | pest or weed control at 100 ppm [9, 14] | pest or weed control at 600 ppm [9, 14]
80 to 99%: inhibition at 25 ppm [1] | pest or weed control at 10 ppm [2, 11] | pest or weed control at 100 ppm ([6]; 100 ppm, mortality after 72 hrs, read-out: control (test results against diamond back moth)) | pest or weed control at 100 ppm [7]
90%: pest or weed control at 10 µg/mL [2, 10]
